Experimental data published in ChEMBL document CHEMBL1201862, “PubChem BioAssay data set” (2004).
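Results reflect a 48-hour exposure of cells in 96-well plates to compound at five concentrations. GI50 marks 50% less growth.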 Active and inactive are the calls of the source. Rule as the data show it: active = GI50 up to about 1.1 µM and inactive = higher.

Legend:
Assay in all cases: growth of human tumour cells (NCI), 48 h
[1] = tested on: SK-MEL-2
[2] = tested on: SW-620
[3] = tested on: SK-OV-3
[4] = tested on: OVCAR-8
[5] = tested on: NCI-H226
[6] = tested on: HL-60
[7] = tested on: Malme-3M
[8] = tested on: IGROV-1
[9] = tested on: HOP-62
[10] = tested on: HCC 2998
[11] = tested on: M14
[12] = tested on: UACC-62
[13] = tested on: HT-29
[14] = tested on: SF-295
[15] = tested on: SF-268
[16] = tested on: CAKI-1
[17] = tested on: NCI-H460
[18] = tested on: RPMI-8226
[19] = tested on: NCI-H522

Measured: GI50

OCCSCC/C(=N\N=C(/CCSCCO)c1ccccc1)c1ccccc1
inactive: [1] 84.7 µM | [2] > 100 µM | [3] > 100 µM | [4] 89.5 µM | [5] > 100 µM | [6] 88.5 µM | [7] > 100 µM | [8] > 100 µM | [9] > 100 µM | [10] > 100 µM | [11] > 100 µM | [12] > 100 µM | [13] 52 µM | [14] 34.4 µM | [15] > 100 µM | [16] 32.1 µM | [17] 69.5 µM | [18] 39.4 µM

CC1=C(C(=O)NNC(=O)Cc2ccccc2)CC(C(=O)NNC(=O)Cc2ccccc2)=C(C)N1
inactive: [1] > 100 µM | [2] > 100 µM | [3] > 100 µM | [4] > 100 µM | [5] > 100 µM | [6] 25.5 µM | [8] > 100 µM | [9] > 100 µM | [10] > 100 µM | [11] > 100 µM | [12] 35.4 µM | [13] > 100 µM | [14] > 100 µM | [15] > 100 µM | [16] > 100 µM | [17] > 100 µM

Cc1c2c(ccc3ccccc32)c[n+]2ccccc12
inactive: [1] 15.8 µM | [2] 5.5 µM | [4] 12.4 µM | [5] 5.3 µM | [6] 28.4 µM | [7] 2.25 µM | [9] 3.23 µM | [19] 4.79 µM | [10] 9.46 µM | [11] 19.7 µM | [13] 49.7 µM | [14] 3.78 µM | [15] 2.01 µM | [16] > 100 µM | [17] > 10 µM | [18] 32.1 µM

CN(CCc1ccccn1)c1nc(=[N+](C)C)ss1
inactive: [1] > 100 µM | [2] > 100 µM | [3] > 100 µM | [4] > 100 µM | [6] > 100 µM | [7] > 100 µM | [8] > 100 µM | [9] > 100 µM | [19] 8.02 µM | [10] > 100 µM | [11] > 100 µM | [12] 64.1 µM | [13] 38.5 µM | [14] 56.1 µM | [15] > 100 µM | [16] > 100 µM | [17] 46.3 µM | [18] > 100 µM

COc1ccc(C(=O)Nc2ccccc2C#N)cc1
inactive: [1] > 100 µM | [2] > 100 µM | [4] > 100 µM | [6] 54.6 µM | [7] > 100 µM | [8] > 100 µM | [9] > 100 µM | [12] > 100 µM | [13] > 100 µM | [14] > 100 µM | [15] > 100 µM | [16] > 100 µM | [17] > 100 µM | [18] > 100 µM

N=C(N)Cn1cnc2ccccc21
inactive: [1] > 100 µM | [2] > 100 µM | [3] > 100 µM | [4] > 100 µM | [5] > 100 µM | [6] > 100 µM | [7] > 100 µM | [8] > 100 µM | [9] > 100 µM | [19] > 100 µM | [10] > 100 µM | [11] > 100 µM | [12] > 100 µM | [14] > 100 µM | [15] > 100 µM | [17] > 100 µM | [18] > 100 µM

Cc1nnc2n1N=C(CC(=O)c1ccc(O)cc1O)CN2N
inactive: [1] > 100 µM | [2] 14.9 µM | [3] > 100 µM | [6] 75.3 µM | [7] > 100 µM | [8] > 100 µM | [9] > 100 µM | [10] > 100 µM | [11] > 100 µM | [12] > 100 µM | [13] > 100 µM | [14] > 100 µM | [15] > 100 µM | [16] > 100 µM | [17] 38.7 µM

NC1CCCCC1.O=C(O)C(CP(=O)(O)O)=C(Cl)Cl
inactive: [1] > 100 µM | [2] > 100 µM | [3] > 100 µM | [4] > 100 µM | [5] > 100 µM | [6] > 100 µM | [7] > 100 µM | [8] > 100 µM | [9] > 100 µM | [10] > 100 µM | [12] > 100 µM | [13] > 100 µM | [14] > 100 µM | [15] > 100 µM | [17] > 100 µM | [18] > 100 µM

Nc1ccc2n[se]nc2c1
inactive: [1] 79.1 µM | [2] > 100 µM | [3] > 100 µM | [4] > 100 µM | [6] 42.4 µM | [7] > 100 µM | [8] > 100 µM | [9] > 100 µM | [10] > 100 µM | [11] > 100 µM | [12] > 100 µM | [13] > 100 µM | [14] > 100 µM | [15] > 100 µM | [16] > 100 µM | [17] > 100 µM | [18] > 100 µM

CC(SC(=S)Nc1cccc(F)c1)C(=O)O (centres undefined)
inactive: [1] 24.1 µM | [2] 33.3 µM | [4] 25.5 µM | [5] 20.1 µM | [6] 13.3 µM | [8] 3.85 µM | [9] 18.3 µM | [19] 13.4 µM | [10] 30.9 µM | [11] 16.8 µM | [12] 19 µM | [13] 30.5 µM | [14] 23.9 µM | [15] 13.6 µM | [16] 45.8 µM | [17] 26.2 µM | [18] 15.6 µM

C=CCN1C(=O)C(=O)N(CC=C)C(=O)C1=O
inactive: [2] > 100 µM | [3] > 100 µM | [4] > 100 µM | [5] > 100 µM | [6] > 100 µM | [7] > 100 µM | [8] > 100 µM | [9] > 100 µM | [19] > 100 µM | [10] > 100 µM | [11] > 100 µM | [12] > 100 µM | [13] > 100 µM | [14] > 100 µM | [15] > 100 µM | [16] > 100 µM | [17] > 100 µM | [18] > 100 µM

N=c1c2ccccc2sc2nc3ccccc3n12
inactive: [1] > 100 µM | [2] > 100 µM | [3] 72.3 µM | [4] > 100 µM | [5] 57.9 µM | [6] > 100 µM | [7] > 100 µM | [8] > 100 µM | [9] > 100 µM | [19] 71.3 µM | [10] > 100 µM | [12] > 100 µM | [13] > 100 µM | [14] > 100 µM | [15] > 100 µM | [16] 48.6 µM | [17] > 100 µM
